In the METLIN SMRT retention time set (Domingo-Almenara et al. 2019):

Test: gradient 5% acetonitrile 3 min, to 50% in 2 min, to 85% in 15 min, held 3 min, 100 µL/min
Conditions: column: Zorbax Extend-C18 2.1 x 50 mm; eluents: water / acetonitrile, 0.1% formic acid
How it was run: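 Standards, all pure, were combined into mixtures of ~100 molecules and run at 100 μL/min on a Zorbax Extend-C18 column (2.1 × 50 mm, 1.8 μm) with water and acetonitrile, each containing 0.1% formic acid. A coupled quadrupole time-of-flight mass spectrometer operated in positive and negative ionization mode. Retention time values come from computationally picked adduct peaks, each inspected manually.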
`COc1cc([C@@H]2c3cc4c(cc3[C@H](O)[C@@H](CO)[C@@H]2C(=O)NCCCN(C)C)OCO4)cc(OC)c1OC` gave an RP-LC retention time of 596 s. In the case of `CN(C)C(CNC(=O)C1(c2ccccc2)CCOCC1)c1cn(C)c2ccccc12` (stereo not given), the RP-LC retention time is reported as 588 s. `COC1CCC12CCN(S(=O)(=O)c1ccc(C)c(Cl)c1)CC2` (stereo not given) showed an RP-LC retention time of 1160 s. In the case of `Cc1ccccc1NC(=O)C1CCN(S(C)(=O)=O)c2ccccc2O1` (stereo not given), the RP-LC retention time is reported as 867 s. Compound `O=C(Nc1nnc(C2=COCCO2)o1)c1ccco1` has an RP-LC retention time of 559 s. `O=C(Cn1c(=O)c2cc(C3CC3)nn2c2ncccc21)Nc1ccc(F)cc1F` gave an RP-LC retention time of 779 s. `COc1ccc(NC(=O)C2CCN(c3cc(N4CCCCC4)ncn3)CC2)cc1OC` gave an RP-LC retention time of 645 s. `COCCCN(CC(=O)N1CCc2sccc2C1COc1ccc(Cl)cc1)C(=O)NC(C)C` (stereo not given) showed an RP-LC retention time of 996 s. `O=C(c1ccc(-c2cccs2)nc1)N1CCN(C2CCCCC2)CC1` showed an RP-LC retention time of 711 s. With `COc1ccccc1C(CNC(=O)c1cc(=O)c2ccc(C)c(C)c2o1)N(C)C` (stereo not given) the RP-LC retention time was 639 s. Work on `CNC(=O)C1CN(C(=O)Nc2ccccc2C(F)(F)F)CC12CCCC2` (stereo not given) yielded an RP-LC retention time of 734 s. Compound `CN1c2cc(F)ccc2C(=O)NC12CCN(C(=O)Nc1ccc3c(c1)OCCO3)CC2` has an RP-LC retention time of 725 s. `Cc1nc(C(=O)NCC(=O)O)c(O)c2ccc(Oc3ccccc3)cc12` gave an RP-LC retention time of 793 s. Compound `Cc1cccc(NC(=O)C2CC(=O)N(c3ccc4oc(C)nc4c3)C2)c1` (stereo not given) has an RP-LC retention time of 708 s. Compound `Cc1noc(C2(NC(=O)/C=C/c3cccnc3)CCCCC2)n1` has an RP-LC retention time of 609 s. Compound `CCCN1CCn2cc(S(=O)(=O)Nc3ccccc3C)cc2C1=O` has an RP-LC retention time of 746 s. For `CCc1ccc(CNC(=O)C2CCCN(c3nnc(C)c4c(C)n(-c5ccccc5)nc34)C2)cc1` (stereo not given), the RP-LC retention time was 795 s. `CCCNC(=O)CSc1cn(CC(=O)N2CC(C)OC(C)C2)c2ccccc12` (stereo not given) showed an RP-LC retention time of 745 s. `COc1cc(NC(=O)c2c(O)c3cccnc3n(-c3ccccc3)c2=O)cc(OC)c1` gave an RP-LC retention time of 1250 s. Compound `CCc1ccc(NC(=O)CSc2cc(N3CCCCC3C)ncn2)cc1` (stereo not given) has an RP-LC retention time of 1100 s. With `CN(C(=O)c1c2c(cn(-c3ccccc3)c1=O)C(=O)CC(C)(C)C2)c1ccc(F)cc1` the RP-LC retention time was 835 s. Work on `COc1cccc(CNC(=O)C2(c3ccc(NC(=O)C(C)C)cc3)CCCCC2)c1` yielded an RP-LC retention time of 950 s. For `O=C(NCCN1CCOCC1)c1ccc2nc(Cc3ccccc3)oc2c1`, the RP-LC retention time was 631 s. Compound `Clc1cccc(-c2nc(-c3ccc(-n4ccnc4)nc3)no2)c1` has an RP-LC retention time of 815 s. For `CC(C)CN1CCn2cc(C(=O)N3CCN(c4ccc(F)cc4)CC3)nc2C1`, the RP-LC retention time was 613 s. Work on `COC(=O)CCc1c(C)nc2c(c(-c3cccs3)nn2C2CCS(=O)(=O)C2)c1C` (stereo not given) yielded an RP-LC retention time of 850 s. With `COc1cc(C(=O)N2CCCC2c2nc(-c3ccccc3)no2)cc(OC)c1OC` (stereo not given) the RP-LC retention time was 910 s. For `Cc1ccc(-c2ccc(N3CCCC(C(=O)NCCc4cccs4)C3)nn2)cc1C` (stereo not given), the RP-LC retention time was 808 s. For `COc1cc(C(C[N+](=O)[O-])c2c(-c3ccccc3)[nH]c3ccccc23)cc(OC)c1OC` (stereo not given), the RP-LC retention time was 952 s. Work on `O=C(Cc1ccc(F)cc1)NCC#CCN1CCc2ccccc2C1` yielded an RP-LC retention time of 565 s. Work on `Cc1noc(C)c1-c1ccc(S(=O)(=O)NC2CCCCC2)cc1` yielded an RP-LC retention time of 959 s. `Cc1cc(C)cc(OCCNS(=O)(=O)c2ccc3c(c2)OCCO3)c1` showed an RP-LC retention time of 934 s. Work on `CCOc1ccc(CN2C[C@@H]3C(=O)N(Cc4ccc5c(c4)OCO5)C(=O)[C@@H]3C2)cc1` yielded an RP-LC retention time of 658 s. `CCOc1ccccc1NC(=O)C1CCN(S(=O)(=O)c2cn(CC)cn2)CC1` gave an RP-LC retention time of 784 s. For `Nc1cc(C2CCN(C(=O)c3ccc(F)c(Cl)c3)CC2)no1`, the RP-LC retention time was 712 s. Work on `CCn1cc(S(=O)(=O)Nc2cc(F)ccc2C)c2cccnc21` yielded an RP-LC retention time of 869 s. For `COC(=O)c1nnn(-c2cc(C)cc(C)c2)c1C(=O)OC`, the RP-LC retention time was 949 s. Work on `CCC(C)C(NC(=O)Cc1cccc(F)c1)C(=O)Nc1nc2ccccc2[nH]1` (stereo not given) yielded an RP-LC retention time of 736 s. Work on `COc1cccc(CNS(=O)(=O)c2ccc(-c3c(C)noc3C)cc2)c1` yielded an RP-LC retention time of 904 s. Compound `CCn1cc(C(=O)NCc2ccc(F)cc2)c2cccnc21` has an RP-LC retention time of 771 s. In the case of `O=C(NCC(O)c1ccc(C(F)(F)F)cc1)C(c1ccccc1)c1ccccc1` (stereo not given), the RP-LC retention time is reported as 938 s. For `Cn1ncc2c(N3CCN(c4ccc(F)cc4)CC3)ncnc21`, the RP-LC retention time was 802 s. In the case of `Cc1cccc(NC(=O)Cn2c(N)nc(C)cc2=O)c1`, the RP-LC retention time is reported as 601 s. With `CN(CC(=O)NCc1ccncc1)c1nc2c(Cl)cccc2s1` the RP-LC retention time was 564 s. `Cc1nn(Cc2nc(-c3ccc(NC(=O)C4CCCO4)cc3)oc2C)c(C)c1C` (stereo not given) showed an RP-LC retention time of 793 s. `Cc1ccccc1-c1noc(Cn2c(=O)n(C(C)C)c(=O)c3ccccc32)n1` showed an RP-LC retention time of 1160 s. For `Cc1ccc2c(c1)OCC(=O)N2Cc1nc(-c2ccccc2)no1`, the RP-LC retention time was 1040 s. In the case of `CSc1ccccc1NC(=O)c1cnc(-c2ccc(C)cc2)nc1-c1ccncc1`, the RP-LC retention time is reported as 973 s. In the case of `CC(N)Cc1c[nH]c2ccc(OCc3cccs3)cc12` (stereo not given), the RP-LC retention time is reported as 734 s. Work on `COc1ccc(SCC(=O)Nc2nnc(-c3ccno3)o2)cc1` yielded an RP-LC retention time of 672 s. `CCc1nc(CN2C(=O)COc3cc(S(=O)(=O)N4CCN(c5ncccn5)CC4)c(C)cc32)no1` gave an RP-LC retention time of 871 s. `COC(=O)c1c(NCc2ccc3c(c2)OCO3)c2ccc(F)cc2[nH]c1=O` gave an RP-LC retention time of 734 s. In the case of `Cc1ccc(C)c(-c2cc3c4nn(CC(=O)NC(C)C)c(=O)n4ccn3n2)c1`, the RP-LC retention time is reported as 856 s. `C=CCNC(=O)C1CCN(C(=O)Nc2ccc(NC(=O)Nc3ccccc3F)cc2)CC1` showed an RP-LC retention time of 710 s. With `CCC1(O)CCOC2(CCN(Cc3cccc(OC)n3)CC2)C1` (stereo not given) the RP-LC retention time was 602 s. `CCn1cnc2ccc(-c3noc(-c4cc(OC)cc(OC)c4)n3)cc21` gave an RP-LC retention time of 797 s. Compound `O=C(NCCN1CCN(C(=O)Cn2ccc3ccccc32)CC1)c1cccs1` has an RP-LC retention time of 572 s. For `COc1ccccc1CNC(=O)C1CC(=O)N(c2n[nH]c3cccc(F)c23)C1` (stereo not given), the RP-LC retention time was 711 s. Work on `Cc1nc(-c2cccc(-c3noc(COc4ccc(F)cc4)n3)c2)cs1` yielded an RP-LC retention time of 1200 s. In the case of `COC(=O)c1cc(S(=O)(=O)N2CCCC2C(=O)Nc2cc(C)ccc2C)cn1C` (stereo not given), the RP-LC retention time is reported as 901 s. `O/N=C(\CC(O)(C(F)(F)F)C(F)(F)F)c1cccc(Cl)c1` showed an RP-LC retention time of 944 s. In the case of `CC(C)Cn1cc(S(=O)(=O)Nc2cc(F)ccc2Cl)c2cccnc21`, the RP-LC retention time is reported as 1020 s. With `Cc1ccccc1NS(=O)(=O)c1ccc(-c2c(C)noc2C)cc1` the RP-LC retention time was 924 s. `COC(=O)C1=CN(C2CC2)c2cc(N3CCN(C)CC3)c(F)cc2S1(=O)=O` showed an RP-LC retention time of 955 s. `Nc1ccc(Br)cc1Br` gave an RP-LC retention time of 1000 s. `Cc1ccc(C)c(N2CCN(c3ccnc(SCC(=O)Nc4c(C)cccc4C)n3)CC2)c1` gave an RP-LC retention time of 1010 s. For `COCCNC(=O)C1Cn2cccc2C(=O)N1C` (stereo not given), the RP-LC retention time was 570 s. Work on `C[C@@]1(O)CCN(Cc2cccc(F)c2F)C[C@H]1N1CCCC1` yielded an RP-LC retention time of 563 s. For `COc1ccc2c(c1)C1(CCN(C(=O)Nc3ccccc3OC)C1)C(=O)N2C` (stereo not given), the RP-LC retention time was 808 s. Compound `Cc1ccc(N2CCN(CC(O)c3ccc4c(c3)OCO4)CC2)cc1` (stereo not given) has an RP-LC retention time of 665 s. For `CCc1ccc(Nc2c(C(=O)N3CCOCC3)cnc3nc(C)ccc23)cc1`, the RP-LC retention time was 601 s. Compound `CCc1ccccc1NC(=O)N1CCCC1c1nc(-c2ccc(F)cc2F)no1` (stereo not given) has an RP-LC retention time of 987 s. Work on `Cc1ccccc1C(=O)Nc1ccc(C(=O)N2CCCC(O)c3cc(Cl)ccc32)c(C)c1` (stereo not given) yielded an RP-LC retention time of 899 s. For `Cc1nc(-c2cc(S(=O)(=O)Nc3ccc(Br)c(C)c3)c(C)s2)cs1`, the RP-LC retention time was 1120 s. Compound `O=C(CC1CCN(C(=O)Nc2ccc(F)cc2)CC1)N1CCCCC1` has an RP-LC retention time of 740 s. `O=C(c1cc2ccccc2oc1=O)N1CCCC(c2nnc(-c3ccccc3)o2)C1` (stereo not given) gave an RP-LC retention time of 793 s. For `Cc1cccc(-c2nnc(SCc3cc(=O)n4c(C)csc4n3)o2)c1`, the RP-LC retention time was 873 s. `CCn1cc(CCN2CCN(C(=O)C3CCCC3)CC2)c2cccnc21` gave an RP-LC retention time of 597 s. Work on `O=C(Cn1ncc2c(c1=O)N(C1CC1)C(=O)CS2)NCCc1ccc(Cl)cc1` yielded an RP-LC retention time of 755 s. In the case of `COC[C@@H]1CN(S(=O)(=O)c2cccc(C#N)c2)C[C@H]1c1ccccn1`, the RP-LC retention time is reported as 715 s. Work on `O=C(c1ccncc1)N1CCN(C(=O)c2nnn3c2COC(c2ccc(Cl)cc2)C3)CC1` (stereo not given) yielded an RP-LC retention time of 717 s. Work on `CCCNc1nc(-c2ccc(OC)cc2)nc2ccccc12` yielded an RP-LC retention time of 734 s. Compound `CC(C(=O)NCCCN1CCCCC1)n1ccc2cc(S(=O)(=O)N3CCCCCC3)ccc21` (stereo not given) has an RP-LC retention time of 707 s. With `COc1cc(CNC(=O)c2cn3ccc(C)cc3n2)cc(OC)c1` the RP-LC retention time was 632 s. `Cc1nnc(-c2coc(S(=O)(=O)N(C)C3CCCCC3)c2)o1` gave an RP-LC retention time of 906 s. In the case of `CCCCN(C)c1ncc(C(=O)Nc2ccccc2)c(N)n1`, the RP-LC retention time is reported as 702 s. Work on `CCCC(=O)Nc1ccc2c(c1)CN(C(=O)c1ccc(F)c(Cl)c1)C(C(=O)N(C)C)C2` (stereo not given) yielded an RP-LC retention time of 727 s. With `O=S(=O)(c1ccc2nc(N3CCN(c4ccc(F)cc4)CC3)ccc2c1)N1CCOCC1` the RP-LC retention time was 890 s. `COc1ccc(N2CCN(c3cc(SCC(=O)Nc4ccc(C)c(F)c4)ncn3)CC2)cc1` gave an RP-LC retention time of 1030 s. In the case of `COc1ccc2c(c1)C1(CCN(C(=O)NC3CCCCC3)C1)C(=O)N2` (stereo not given), the RP-LC retention time is reported as 703 s.
